In the supplement of paper PMC10307832:

Assays:
Test in all cases: relative viability (nuclei count vs DMSO), 5 days (fraction); higher = more cells survive
LCLC-97TM1 = system: LCLC-97TM1
Outline: (§1)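 One day after seeding in 1536-well plates, lung cancer cell lines were dosed by pin tool. Dosing was either single-drug or a fixed anchor-drug dose plus five library-drug doses (not always all listed) in √10 steps. After 5 days, nuclei were stained in one fix-and-stain step and counted on 4× images, and relative viability is the nuclei count of treated wells over that of vehicle wells, given as the median of duplicate plates.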

NCI-H460 = system: NCI-H460
Outline: as §1

LXF-289 = system: LXF-289
Outline: as §1

HCC-78 = system: HCC-78
Outline: as §1

HOP-62 = system: HOP-62
Outline: as §1

A-427 = system: A-427
Outline: as §1

EPLC-272H = system: EPLC-272H
Outline: as §1

NCI-H1975 = system: NCI-H1975
Outline: as §1

NCI-H358 = system: NCI-H358
Outline: as §1

COR-L 105 = system: COR-L 105
Outline: as §1

NCI-H2170 = system: NCI-H2170
Outline: as §1

HCC-366 = system: HCC-366
Outline: as §1

NCI-H1792 = system: NCI-H1792
Outline: as §1

LU99A = system: LU99A
Outline: as §1

NCI-H1915 = system: NCI-H1915
Outline: as §1

NCI-H1793 = system: NCI-H1793
Outline: as §1

NCI-H1944 = system: NCI-H1944
Outline: as §1

UMC-11 = system: UMC-11
Outline: as §1

LC-2-ad = system: LC-2-ad
Outline: as §1

SK-LU-1 = system: SK-LU-1
Outline: as §1

NCI-H2085 = system: NCI-H2085
Outline: as §1

NCI-H1755 = system: NCI-H1755
Outline: as §1

CC(C)Oc1cc(Nc2nc(N[C@@H](C)c3ccc(F)cn3)ncc2Cl)n[nH]1 [AZ23] + CS(=O)(=O)N1CCN(Cc2cc3nc(-c4cccc5[nH]ncc45)nc(N4CCOCC4)c3s2)CC1 [Pictilisib] (partner 1 µM)
relative viability (LCLC-97TM1; first compound 0.01 µM): 0.134 | relative viability (LCLC-97TM1; first compound 0.03162 µM): 0.225 | relative viability (LCLC-97TM1; first compound 0.3162 µM): 0.157 | relative viability (NCI-H460; first compound 0.01 µM): 0.3 | relative viability (NCI-H460; first compound 0.03162 µM): 0.567 | relative viability (NCI-H460; first compound 0.3162 µM): 0.348 | relative viability (LXF-289; first compound 0.01 µM): 0.969 | relative viability (LXF-289; first compound 0.03162 µM): 0.818 | relative viability (LXF-289; first compound 0.3162 µM): 0.788 | relative viability (HCC-78; first compound 0.01 µM): 0.192 | relative viability (HCC-78; first compound 0.03162 µM): 0.195 | relative viability (HCC-78; first compound 0.3162 µM): 0.195 | relative viability (HOP-62; first compound 0.01 µM): 0.635 | relative viability (HOP-62; first compound 0.03162 µM): 1.11 | relative viability (HOP-62; first compound 0.3162 µM): 0.874 | relative viability (A-427; first compound 0.01 µM): 0.819 | relative viability (A-427; first compound 0.03162 µM): 0.716 | relative viability (A-427; first compound 0.3162 µM): 0.62 | relative viability (EPLC-272H; first compound 0.01 µM): 0.258 | relative viability (EPLC-272H; first compound 0.03162 µM): 0.349 | relative viability (NCI-H1975; first compound 0.01 µM): 0.307 | relative viability (NCI-H1975; first compound 0.03162 µM): 0.327 | relative viability (NCI-H1975; first compound 0.3162 µM): 0.298 | relative viability (NCI-H358; first compound 0.01 µM): 0.404 | relative viability (NCI-H358; first compound 0.03162 µM): 0.329 | relative viability (NCI-H358; first compound 0.3162 µM): 0.324 | relative viability (COR-L 105; first compound 0.01 µM): 0.407 | relative viability (COR-L 105; first compound 0.03162 µM): 0.417 | relative viability (COR-L 105; first compound 0.3162 µM): 0.383 | relative viability (NCI-H2170; first compound 0.01 µM): 0.288 | relative viability (NCI-H2170; first compound 0.03162 µM): 0.325 | relative viability (NCI-H2170; first compound 0.3162 µM): 0.304 | relative viability (HCC-366; first compound 0.01 µM): 0.14 | relative viability (HCC-366; first compound 0.03162 µM): 0.145 | relative viability (HCC-366; first compound 0.3162 µM): 0.147 | relative viability (NCI-H1792; first compound 0.01 µM): 0.248 | relative viability (NCI-H1792; first compound 0.03162 µM): 0.291 | relative viability (NCI-H1792; first compound 0.3162 µM): 0.302 | relative viability (LU99A; first compound 0.01 µM): 0.292 | relative viability (LU99A; first compound 0.03162 µM): 0.386 | relative viability (LU99A; first compound 0.3162 µM): 0.294 | relative viability (NCI-H1915; first compound 0.01 µM): 0.988 | relative viability (NCI-H1915; first compound 0.03162 µM): 0.979 | relative viability (NCI-H1915; first compound 0.3162 µM): 0.945 | relative viability (NCI-H1793; first compound 0.01 µM): 0.318 | relative viability (NCI-H1793; first compound 0.03162 µM): 0.369 | relative viability (NCI-H1793; first compound 0.3162 µM): 0.371 | relative viability (NCI-H1944; first compound 0.01 µM): 0.342 | relative viability (NCI-H1944; first compound 0.03162 µM): 0.353 | relative viability (NCI-H1944; first compound 0.3162 µM): 0.319 | relative viability (UMC-11; first compound 0.01 µM): 0.762 | relative viability (UMC-11; first compound 0.03162 µM): 0.963 | relative viability (UMC-11; first compound 0.3162 µM): 0.818 | relative viability (LC-2-ad; first compound 0.01 µM): 0.386 | relative viability (LC-2-ad; first compound 0.03162 µM): 0.574 | relative viability (LC-2-ad; first compound 0.3162 µM): 0.357 | relative viability (SK-LU-1; first compound 0.01 µM): 0.408 | relative viability (SK-LU-1; first compound 0.03162 µM): 0.599 | relative viability (SK-LU-1; first compound 0.3162 µM): 0.553 | relative viability (NCI-H2085; first compound 0.01 µM): 0.556 | relative viability (NCI-H2085; first compound 0.03162 µM): 0.563 | relative viability (NCI-H2085; first compound 0.3162 µM): 0.446 | relative viability (NCI-H1755; first compound 0.01 µM): 0.41 | relative viability (NCI-H1755; first compound 0.03162 µM): 0.478 | relative viability (NCI-H1755; first compound 0.3162 µM): 0.464
